Patent publication US20210395210A1, “INHIBITION OF BACTERIAL CHAPERONIN SYSTEMS” (THE TRUSTEES OF INDIANA UNIVERSITY, priority 2018, published 2021)
Like-named read-outs stand apart in the source and are kept apart here.

Legend:
native Rho (rhodanese) = target: T1, native Rho (rhodanese) (Bos taurus, UniProt P00586); experiment: Counter-screen for inhibition of native rhodanese enzymatic activity; format: biochemical; details: for log(IC50) Native Rho Reporter: log of IC50 (μM scale), with standard deviation
T1 construct: purchased Roche (so in the source) R1756
T1 sequence (P00586 1-297): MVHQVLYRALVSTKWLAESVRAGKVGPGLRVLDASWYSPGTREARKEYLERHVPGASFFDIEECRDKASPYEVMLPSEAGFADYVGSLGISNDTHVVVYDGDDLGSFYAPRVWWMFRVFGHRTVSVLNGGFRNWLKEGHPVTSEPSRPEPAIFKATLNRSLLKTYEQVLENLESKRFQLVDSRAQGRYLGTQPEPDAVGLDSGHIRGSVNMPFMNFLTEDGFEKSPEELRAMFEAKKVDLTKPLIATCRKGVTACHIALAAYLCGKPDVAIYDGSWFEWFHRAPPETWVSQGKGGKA
Method: Reagent Preparations & Assay Protocol: Reagents were identical to those used in the GroEUES-dRho refolding assay described above; however, the assay protocol differed in the sequence of compound addition to the wells. Compounds were pin-transferred after the 60 minute incubation for the refolding cycle, but prior to the addition of the thiocyanate enzymatic assay stock. Thus, the refolding reactions were allowed to proceed for 60 min at 37° C. in the absence of test compounds, but the enzymatic activity of the refolded rhodanese reporter enzyme was monitored in the presence of test compounds (inhibitor concentration range during the enzymatic reporter reaction is 100 µM to 46 nM-3-fold dilutions). IC50 values for the rhodenase reporter enzyme were determined as described above. Results presented represent the averages of IC50 values obtained from at least quadriplicate (duplicate of duplicate) replicates.

[1] = Liver cell viability assay (Alamar Blue); details: human
Method: HEK 293 cells were maintained in MEM medium (Corning Cellgro, 10-009 CV) supplemented with 10% FBS (Sigma, F2242). […] Cells at 80% confluence were harvested and diluted in growth medium, then 45 μL of the THLE-3 cells (1,500 cells/well) or HEK 293 cells (1,500 cells/well) were dispensed per well, and plates were sealed with “Breathe Easy” oxygen permeable membranes (Diversified Biotech) and incubated at 37° C., 5% CO2, for 24 h.

E. coli GroEL/ES = target: T2, E. coli GroEL/ES (Escherichia coli, UniProt P0A6F5); experiment: GroEL/ES-mediated dMDH refolding assay; format: biochemical
T2 construct: made in house; host or cells: GroEL in E. coli DH5α; GroES in E. coli BL21 (DE3)
T2 sequence (P0A6F5 2-548): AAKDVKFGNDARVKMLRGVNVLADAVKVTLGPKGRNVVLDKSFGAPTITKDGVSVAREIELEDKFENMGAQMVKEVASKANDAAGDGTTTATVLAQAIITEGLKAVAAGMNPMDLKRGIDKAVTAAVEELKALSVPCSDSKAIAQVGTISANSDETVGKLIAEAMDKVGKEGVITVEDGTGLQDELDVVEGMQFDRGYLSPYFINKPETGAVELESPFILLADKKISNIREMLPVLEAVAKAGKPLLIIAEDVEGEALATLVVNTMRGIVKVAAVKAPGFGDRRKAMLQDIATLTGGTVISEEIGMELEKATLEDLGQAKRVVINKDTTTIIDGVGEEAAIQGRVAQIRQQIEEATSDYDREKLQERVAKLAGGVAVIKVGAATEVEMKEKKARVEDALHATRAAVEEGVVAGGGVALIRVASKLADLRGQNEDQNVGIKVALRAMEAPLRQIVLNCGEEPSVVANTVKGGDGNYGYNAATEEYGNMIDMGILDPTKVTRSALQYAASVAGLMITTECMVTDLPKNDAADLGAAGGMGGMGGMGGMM
Method: Reagent preparation: For these assays, four primary reagent stocks were prepared: 1) GroEUES-dMDH or HSP60/10-dMDH binary complex stock; 2) ATP initiation stock; 3) EDTA quench stock; 4) MDH enzymatic assay stock. Denatured MDH (dMDH) was prepared by 2-fold dilution of MDH (5 mg/ml, soluble pig heart MDH from Roche, product #10127248001) with denaturant buffer (7 M guanidine-HCl, 200 mM Tris, pH 7.4, and 50 mM DTT). MDH was completely denatured by incubating at room temperature for 45 min. The binary complex solutions were prepared by slowly adding the dMDH stock to a stirring stock with GroEL (or HSP60) in folding buffer (50 mM Tris-HCl, pH 7.4, 50 mM KCl, 10 mM MgCl2, and 1 mM DTT), followed by addition of GroES (or HSP10). The binary complex stocks were prepared immediately prior to dispensing into the assay plates and had final protein concentrations of 83.3 nM GroEL (Mr 800 kDa) or HSP60 (Mr 400 kDa), 100 nM GroES or HSP10 (Mr 70 kDa), and 20 nM dMDH in folding buffer. For the ATP initiation stock, ATP solid was diluted into folding buffer to a final concentration of 2.5 mM. Quench solution contained 600 mM EDTA (pH 8.0). The MDH enzymatic assay stock consisted of 20 mM sodium mesoxalate and 2.4 mM NADH in reaction buffer (50 mM Tris-HCl, pH 7.4, 50 mM KCl, and 1 mM DTT).
Assay Protocol: First, 30 μL aliquots of the GroEL/ES-dMDH or HSP60/10-dMDH binary complex stocks were dispensed into clear, 384-well polystyrene plates. […] The chaperonin-mediated refolding cycles were initiated by addition of 20 μL of ATP stock (reagent concentrations during refolding cycle: 50 nM GroEL or HSP60, 60 nM GroES or HSP10, 12 nM dMDH, 1 mM ATP, and compounds of 100 μM to 46 nM, 3-fold dilution series). The refolding reactions were incubated at 37° C. […] Next, the assay was quenched by addition of 10 μL of the EDTA to final concentration of 100 mM. […] A340 nm measurements were recorded at 0.5 minutes (start point) and at successive time points until the amount of NADH consumed reached ˜90% (end point, generally between 20-35 minutes). The differences between the start and end point A340 values were used to calculate the % inhibition of the GroEL/ES or HSP60/10 machinery by the compounds. […] Results presented represent the averages of IC50 values obtained from at least quadriplicate (duplicate of duplicate) replicates.
After generating the compound library, we next employed a series of well-established biochemical assays to evaluate compound inhibitory effects against the GroEUES chaperonin system (See FIG. 6 and FIG. 7). We used E. coli GroEUES as the surrogate chaperonin system for refolding of the reporter enzymes malate dehydrogenase (MDH) and rhodanese (Rho). Briefly, binary complexes are formed between GroEL and denatured MDH or Rho, which are then refolded to their native states upon addition of ATP and the GroES co-chaperonin. Enzymatic activities of refolded native MDH or Rho act as coupled reporters of GroEUES refolding functions since in the presence of chaperonin inhibitors, no functional reporter enzymes are generated.

[2] = log of IC50 (μM scale), with standard deviation
[3] = read-out: Biochemical Assay IC50 GroEL/ES-dMDH refolding
[4] = read-out: Biochemical Assay IC50 Native Rho Reporter

| Compound | IC50 (native Rho (rhodanese)) [µM] | log(IC50) Native Rho Reporter (native Rho (rhodanese)) | CC50 at 48 h [1] [µM] | log(IC50) GroEL/ES-dMDH Refolding (E. coli GroEL/ES; [2]) | IC50 (E. coli GroEL/ES; [3]) [µM] | IC50 (native Rho (rhodanese); [4]) [µM] | IC50 (E. coli GroEL/ES) [µM] | inhibition in the GroEL/ES-mediated refolding assays (in words) (E. coli GroEL/ES; dMDH and dRho refolding assays) | IC50 (E. coli GroEL/ES; log of IC50 (μM scale), with standard deviation, read-out: log(IC50) GroEL/ES-dMDH Refolding (converted)) [µM] |
| --- | --- | --- | --- | --- | --- | --- | --- | --- | --- |
| O=C(Nc1ccccc1)c1ccccc1O [Compound 16, 2-Hydroxy-N-phenylbenzamide] | > 100 | >2 | 67.6 | >2 | > 100 | – | – | – | – |
| O=C(Nc1ccc(Sc2nc3ccccc3s2)c(Cl)c1)c1cc(Br)cc(Br)c1 [Compound 17, N-(4-(Benzo[d]thiazol-2-ylthio)-3-chlorophenyl)-3,5-dibromobenzamide] | – | – | > 100 | – | – | > 100 | > 100 | – | – |
| COc1c(Br)cccc1C(=O)Nc1ccc(Sc2nc3ccccc3s2)c(Cl)c1 [Compound 30, N-(4-(Benzo[d]thiazol-2-ylthio)-3-chlorophenyl)-3-bromo-2-methoxybenzamide] | – | – | > 100 | – | – | – | > 100 | – | – |
| O=C(Nc1cccc(Cl)c1)c1cccc(Br)c1 [Compound 24, 3-Bromo-N-(3-chlorophenyl)benzamide] | – | >2 | 50.1 | >2 | – | > 100 | > 100 | – | – |
| COc1ccc(Br)cc1C(=O)Nc1cccc(Cl)c1 [Compound 39, 5-Bromo-N-(3-chlorophenyl)-2-methoxybenzamide] | – | >2 | 93.3 | >2 | – | > 100 | > 100 | – | – |
| COc1c(Br)cc(Br)cc1C(=O)Nc1ccccc1 [Compound 41, 3,5-Dibromo-2-methoxy-N-phenylbenzamide] | – | >2 | > 100 | >2 | – | > 100 | > 100 | – | – |
| O=C(Nc1ccc(Sc2nc3ccccc3s2)cc1)c1cc(Br)cc(Br)c1 [Compound 20, N-(4-(Benzo[d]thiazol-2-ylthio)phenyl)-3,5-dibromobenzamide] | – | – | > 100 | – | – | > 100 | > 100 | – | – |
| CN[C@H](CC(C)C)C(=O)N[C@H]1C(=O)N[C@@H](CC(N)=O)C(=O)N[C@H]2C(=O)N[C@H]3C(=O)N[C@H](C(=O)N[C@H](C(=O)O)c4cc(O)cc(O)c4-c4cc3ccc4O)[C@H](O)c3ccc(c(Cl)c3)Oc3cc2cc(c3O[C@@H]2O[C@H](CO)[C@@H](O)[C@H](O)[C@H]2O[C@H]2C[C@](C)(N)[C@H](O)[C@H](C)O2)Oc2ccc(cc2Cl)[C@H]1O [Vancomycin, vancomycin, reference compound] | > 100 | >2 | > 100 | >2 | – | – | > 100 | – | – |
| O=C(Nc1cccc(Cl)c1)c1cc(Br)cc(Br)c1O [Compound 9, 3,5-Dibromo-N-(3-chlorophenyl)-2-hydroxybenzamide] | – | >2 | 9.12 | 1.38 ± 0.15 | 24 | > 100 | – | – | – |
| O=C(Nc1ccccc1)c1cc(Br)cc(Br)c1 [Compound 26, 3,5-Dibromo-N-phenylbenzamide] | – | >2 | > 100 | >2 | – | > 100 | > 100 | – | – |
| O=C(Nc1ccc(Sc2nc3ccccc3s2)c(Cl)c1)c1cccc(Br)c1 [Compound 18, N-(4-(Benzo[d]thiazol-2-ylthio)-3-chlorophenyl)-3-bromobenzamide] | – | – | 87.1 | – | – | > 100 | > 100 | – | – |
| O=C(Nc1ccc(Oc2ccc(Cl)cc2)c(Cl)c1)c1cc(I)cc(I)c1O [Rafoxanide, rafoxanide, reference compound] | > 100 | >2 | 24 | – | 4.3 | – | – | potent GroEUES inhibitors | 4.37 |
| COc1c(Br)cccc1C(=O)Nc1ccccc1 [Compound 42, 3-Bromo-2-methoxy-N-phenylbenzamide] | – | >2 | > 100 | >2 | – | > 100 | > 100 | – | – |
| O=C(Nc1cccc(Cl)c1)c1ccccc1 [Compound 25, N-(3-Chlorophenyl)benzamide] | – | >2 | > 100 | >2 | – | > 100 | > 100 | – | – |
| O=C(Nc1ccc(Sc2nc3ccccc3s2)cc1)c1ccccc1 [Compound 22, N-(4-(Benzo[d]thiazol-2-ylthio)phenyl)benzamide] | – | – | > 100 | – | – | > 100 | > 100 | – | – |
| COc1ccc(Br)cc1C(=O)Nc1ccc(Sc2nc3ccccc3s2)c(Cl)c1 [Compound 31, N-(4-(Benzo[d]thiazol-2-ylthio)-3-chlorophenyl)-5-bromo-2-methoxybenzamide] | – | – | > 100 | – | – | > 100 | > 100 | – | – |
| O=C(Nc1ccccc1)c1cccc(Br)c1 [Compound 27, 3-Bromo-N-phenylbenzamide] | – | >2 | > 100 | >2 | – | > 100 | > 100 | – | – |
